Experimental data published in patent US9085756B2, “Drug screening using islet cells and islet cell progenitors from human embryonic stem cells” (Asterias Biotherapeutic, Inc., priority 2001, dated 2015).

System: hES cells
Assay: Hepatocyte differentiation of hES cells, morphology
Assay type: cell-based, human
Settings: 4 days in medium containing butyrate (after 1% DMSO pre-differentiation)
From the text: Undifferentiated hES cells were differentiated into cells having characteristics of human hepatocytes using a strategy to initiate a global differentiation process using DMSO in a subconfluent culture. The cells are then induced to form hepatocyte-like cells by the addition of Na-butyrate.
Briefly, the hES cells were maintained in undifferentiated culture conditions for 2-3 days after splitting. At this time, the cells were 50 to 60% confluent and the medium was exchanged with unconditioned SR medium containing 1% DMSO (Step II). The cultures were fed daily with SR medium for 4 days and then exchanged into unconditioned SR medium containing both 1% DMSO and […] Na-butyrate, with which they were fed daily for 6 days (Step III). They were then replated onto collagen, and cultured in a hepatocyte maturation medium containing a cocktail of hepatocyte-friendly growth factors (Step IV).

In the case of CCCC(=O)[O-].[Na+] [butyrate, sodium n-butyrate], the “Cells in the culture with large nuclei and granular cytoplasm” value is reported as “more than 80%” and the “Cells in the culture with large nuclei and granular cytoplasm” value (listed as sodium n-butyrate) is reported as “More than 80%”.
